Test systems include HOP-92 NSCLC; SN12C renal; MDA-N; TK-10 renal; EKVX NSCLC; HCT-15 colon; MCF7 breast; UACC-257 melanoma; 786-0 renal; BT-549 breast.
Holding throughout (assay): NCI tumour cell line growth inhibition, 48 h

Several values for one entry are separate records, joined by “and”; a condition that tells them apart may be missing. Equal entries are not always repeated.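 Grown in 96-well plates, cells were treated for 48 hours with each compound at five concentrations. Insufficient inhibition: endpoint recorded as highest concentration tested. GI50 = concentration required for 50% inhibition of growth. TGI is the concentration that stops growth completely.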 Where a SMILES comes first, the peptide text is derived from it. The star is where a group is joined. Boc = CC(C)(C)OC(=O)*; OBn = c1ccc(CO*)cc1 Bounds are passed on as bounds.

`CC(C)(C)OC(=O)NC(Cc1ccccc1)C(=O)NC(Cc1ccccc1)C(=O)NCC(=O)OCc1ccccc1` (stereo not drawn) (Boc-Phe-Phe-Gly-OBn; configuration not given here): the TGI in the experiment with HOP-92 NSCLC is above 100 µM; in the experiment with SN12C renal it was 85.9 µM; in the experiment with MDA-N it was 53.3 µM; with TK-10 renal, 53.1 µM; with EKVX NSCLC it was above 100 µM; in the experiment on HCT-15 colon, 64.7 µM. The TGI in the experiment on MCF7 breast is above 100 µM; in the experiment with UACC-257 melanoma, above 100 µM; in the experiment on 786-0 renal, 31.6 µM.

On to `COC(=O)[C@@H]1C[C@@]2(C3C=CN(C(=O)C(F)(F)F)C=C3)c3ccccc3N(C(=O)C(F)(F)F)[C@H]2N1C(=O)OC`, for which the TGI is above 100 µM in the experiment on HOP-92 NSCLC; above 100 µM in the experiment on SN12C renal; 60.5 µM in the experiment with TK-10 renal; above 100 µM in the experiment on BT-549 breast; above 100 µM with EKVX NSCLC; above 100 µM in the experiment with HCT-15 colon. In addition, the TGI in the experiment with MCF7 breast, with UACC-257 melanoma and in the experiment with 786-0 renal was above 100 µM throughout.

In the case of `CN(C)CCCOCCn1c2c(c3ccccc31)CCCC2`, the TGI with HOP-92 NSCLC was 46 µM; in the experiment with SN12C renal it was 32.5 µM; in the experiment with MDA-N, 29 µM; with TK-10 renal, 32.6 µM; in the experiment with EKVX NSCLC it was 57.8 µM; in the experiment on HCT-15 colon, 30.5 µM. Moreover, the results for the TGI in the experiment on MCF7 breast, with UACC-257 melanoma and in the experiment on 786-0 renal were 31.5 µM, 33.3 µM and 28.9 µM, respectively.

In the case of `C/C(O)=C/c1nc2ccc([N+](=O)[O-])cc2nc1/C=C(/C)O`, the TGI in the experiment with HOP-92 NSCLC was 84.3 µM; with SN12C renal, above 100 µM; with MDA-N, above 100 µM; in the experiment on TK-10 renal, above 100 µM; in the experiment on BT-549 breast it was above 100 µM; in the experiment with EKVX NSCLC, above 100 µM. Moreover, the TGI with HCT-15 colon was above 100 µM; with UACC-257 melanoma it was 72.7 µM; in the experiment with 786-0 renal it was above 100 µM.

Take `C[n+]1c2ccccc2c(C(=O)Nc2ccc(S(=O)(=O)N=C(N)N)cc2)c2ccccc21`: the TGI in the experiment with SN12C renal, in the experiment with MDA-N, in the experiment with TK-10 renal, with EKVX NSCLC, in the experiment with HCT-15 colon and in the experiment on MCF7 breast was above 100 µM in each case. The TGI in the experiment on UACC-257 melanoma and in the experiment with 786-0 renal was above 100 µM in each case.

Take `COc1ccc2c(c1)/c(=C/c1ccc(N(C)C)cc1)c1cc(-c3ccccc3)[n+](C)n12`: the TGI in the experiment with HOP-92 NSCLC was 0.784 µM; in the experiment on SN12C renal, 1.24 µM; in the experiment with MDA-N, 1.48 µM; in the experiment with TK-10 renal, 5.32 µM and 6.29 µM; with EKVX NSCLC it was 1.42 µM; in the experiment with HCT-15 colon it was 4.02 µM. Moreover, the TGI in the experiment with MCF7 breast was 7.11 µM; in the experiment on UACC-257 melanoma, 2.19 µM; with 786-0 renal it was 1.6 µM. For the same molecule, the GI50 with TK-10 renal is 0.711 µM.

As to `NCCCCNCCCNC(=O)c1nc(-c2csc(CCN)n2)sc1Cl`, the TGI in the experiment on HOP-92 NSCLC, in the experiment on SN12C renal, in the experiment on TK-10 renal, in the experiment with EKVX NSCLC, with HCT-15 colon and in the experiment on UACC-257 melanoma was above 100 µM each time.

`O=c1[nH]c(Nc2cccc(Cl)c2)nc2nc[nH]c12`: the TGI with HOP-92 NSCLC, in the experiment with SN12C renal, in the experiment on TK-10 renal, in the experiment on BT-549 breast, with EKVX NSCLC and with HCT-15 colon was above 100 µM throughout. Moreover, the TGI in the experiment with MCF7 breast, with UACC-257 melanoma and in the experiment on 786-0 renal was above 100 µM each time.

In the case of `COc1ccc(C(=O)N2c3ccccc3Sc3ccccc32)c(C(F)(F)F)c1`, the GI50 is 0.152 µM with HOP-92 NSCLC; 1.3 µM with SN12C renal; 16.7 µM in the experiment with TK-10 renal; 0.892 µM with BT-549 breast; 0.613 µM with EKVX NSCLC; 0.405 µM in the experiment with HCT-15 colon. For the same molecule, the GI50 with MCF7 breast is 0.411 µM; in the experiment with UACC-257 melanoma, 13.7 µM. Also, the TGI is 3.91 µM with HOP-92 NSCLC; above 100 µM in the experiment on SN12C renal; above 100 µM with TK-10 renal; 13.6 µM in the experiment with BT-549 breast; above 100 µM in the experiment on EKVX NSCLC; above 100 µM with HCT-15 colon. Also, the TGI with MCF7 breast and in the experiment with UACC-257 melanoma was above 100 µM in each case.

Take `CN(Cc1cnc2nc(N)nc(N)c2n1)c1ccc(C(=O)NC(CCC(=O)NC(P(=O)(O)O)P(=O)(O)O)C(=O)O)cc1` (stereo not given): the TGI in the experiment on HOP-92 NSCLC, in the experiment on SN12C renal, in the experiment with MDA-N, with TK-10 renal, with EKVX NSCLC and in the experiment with HCT-15 colon was above 100 µM in each case. Also, the TGI in the experiment with MCF7 breast, with UACC-257 melanoma and in the experiment with 786-0 renal was above 100 µM each time.

For the molecule `COc1c2cc(C(C)(C)C)cc1Cc1cccc(c1O)Cc1cc(C(C)(C)C)cc(c1OC)Cc1cccc(c1O)Cc1cc(C(C)(C)C)cc(c1OC)Cc1cccc(c1O)C2`, the TGI with HOP-92 NSCLC, in the experiment with SN12C renal, in the experiment on MDA-N, in the experiment on EKVX NSCLC, with HCT-15 colon and in the experiment with MCF7 breast was above 100 µM each time. Further, the TGI in the experiment on UACC-257 melanoma and in the experiment on 786-0 renal was above 100 µM throughout.

In the case of `Cc1c2c(OCCCCN3CCN(c4ncccn4)CC3)nn(C)c(=O)c2c(C)n1-c1ccccc1`, the TGI was 31.8 µM in the experiment on HOP-92 NSCLC; 34.5 µM with SN12C renal; 33.5 µM with TK-10 renal; 34.5 µM in the experiment with BT-549 breast; 36.6 µM in the experiment on EKVX NSCLC; 32.7 µM with HCT-15 colon. The TGI with MCF7 breast was 31.4 µM; in the experiment on UACC-257 melanoma, 33.5 µM; in the experiment with 786-0 renal, 34.7 µM.

With `CC(=O)Oc1ccc(C2COc3cc(OC(C)=O)c(OC(C)=O)cc3C2)cc1` (stereo not given), the TGI was 24.9 µM in the experiment with HOP-92 NSCLC; 52 µM with SN12C renal; 32 µM in the experiment with EKVX NSCLC; 40.8 µM with HCT-15 colon; 35.2 µM in the experiment with MCF7 breast; 34.9 µM with UACC-257 melanoma.

With `Cc1ccc(N=Nc2c(C)c(C#N)c(=S)n(C3OC(CO)C(O)C(O)C3O)c2-c2ccccc2)cc1` (stereo not given), the TGI was above 100 µM with SN12C renal; 71.7 µM with MDA-N; 67.6 µM in the experiment on TK-10 renal; 42.1 µM in the experiment with BT-549 breast; 63.7 µM with HCT-15 colon; 34.7 µM with MCF7 breast. The TGI with UACC-257 melanoma was above 100 µM; in the experiment on 786-0 renal it was 49.8 µM.

The record behind these values is PubChem BioAssay (NCI).
